Source: ChEMBL document CHEMBL2346530, “Discovery of non-peptide inhibitors of Plasmepsin II by structure-based virtual screening” (Bioorg Med Chem Lett, 2013)

Tests used:
Plasmepsin II = Plasmepsin II (Plasmodium falciparum, UniProt P46925); test: Inhibition of recombinant Plasmodium falciparum plasmepsin 2 expressed in Escherichia coli using DABCYL-Glu-Arg-Nle-Phe-Leu-Ser-Phe-Pro-EDANS as substrate incubated for 40 mins prior to substrate addition measured after 10 mins by FRET-based fluorometric analysis
[1] = target: Plasmepsin II (Plasmodium falciparum) (UniProt P46925); test: Inhibition of recombinant Plasmodium falciparum plasmepsin 2 expressed in Escherichia coli using DABCYL-Glu-Arg-Nle-Phe-Leu-Ser-Phe-Pro-EDANS as substrate at 10 uM incubated for 40 mins prior to substrate addition measured after 10 mins by FRET-based fluorometric analysis
Sequence of Plasmepsin II (Plasmodium falciparum) (P46925 125-453 limits assumed): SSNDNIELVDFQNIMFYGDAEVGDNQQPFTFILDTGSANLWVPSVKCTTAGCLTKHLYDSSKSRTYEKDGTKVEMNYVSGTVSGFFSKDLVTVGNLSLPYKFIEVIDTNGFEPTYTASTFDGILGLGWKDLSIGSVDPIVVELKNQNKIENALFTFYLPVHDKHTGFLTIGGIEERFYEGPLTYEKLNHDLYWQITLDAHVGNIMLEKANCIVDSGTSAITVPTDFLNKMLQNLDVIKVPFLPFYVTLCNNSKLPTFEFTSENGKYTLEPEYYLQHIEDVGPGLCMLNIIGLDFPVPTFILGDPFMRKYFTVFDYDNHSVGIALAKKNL

Sequence of Plasmepsin II (P46925 whole entry): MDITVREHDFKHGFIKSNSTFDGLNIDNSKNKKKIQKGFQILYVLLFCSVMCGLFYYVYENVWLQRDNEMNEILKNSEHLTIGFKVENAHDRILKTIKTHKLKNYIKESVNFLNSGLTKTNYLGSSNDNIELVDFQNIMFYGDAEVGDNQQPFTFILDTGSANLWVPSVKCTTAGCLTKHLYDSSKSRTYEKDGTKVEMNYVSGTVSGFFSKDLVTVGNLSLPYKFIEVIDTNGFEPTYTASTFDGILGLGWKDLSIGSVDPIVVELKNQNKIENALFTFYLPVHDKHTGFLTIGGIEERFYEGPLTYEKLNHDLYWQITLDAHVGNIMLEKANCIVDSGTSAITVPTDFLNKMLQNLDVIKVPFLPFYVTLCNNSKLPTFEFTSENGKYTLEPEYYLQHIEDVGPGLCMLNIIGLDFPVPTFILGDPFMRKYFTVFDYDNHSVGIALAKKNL

| IC50 (Plasmepsin II) | inhibition [1] | Compound |
| --- | --- | --- |
| 4.62 µM | 67.7% | Cc1ccccc1N/C(=N\N=C/c1ccc2ccc3ccc(/C=N\N=C(/Nc4ccccc4C)c4ccccn4)nc3c2n1)c1ccccn1 |
| 9.47 µM | 52% | OC(CNCc1ccccc1)Cn1c2ccc(Cl)cc2c2cc(Cl)ccc21 (stereo not given) |
| 8.99 µM | 54.7% | O=C(CN(c1cccc(Br)c1)S(=O)(=O)c1ccccc1)Nc1ccc(CSc2ccccc2)cc1 |
| 7 µM | 60.6% | Cc1ccc(S(=O)(=O)Nc2ccccc2CNc2cnc3ccccc3c2)cc1 |
| 6.45 µM | 55% | N=C(S)NN/C(=C\c1nc(-c2ccccn2)cc2ccccc12)c1ccc(Cl)cc1 |
